The values that follow come from ChEMBL document CHEMBL3639015, “Bicyclic compound or salt thereof” (2014).

The term IC50 denotes the point on the concentration scale where inhibition reaches its midpoint.

The target of the assay is Heat shock protein HSP 90-alpha (Homo sapiens, UniProt P07900). Kind of assay: AlphaScreen Competitive Assay: HSP90-binding activity was determined by an AlphaScreen competitive assay system. The purified HSP90 solution was diluted with a binding buffer (50 mM Tris-HCl (pH 7.5), 150 mM NaCl, 0.1% Triton-X 100, 1 mM DTT, 0.1% BSA) and added to a 384-well plate (#3673, Corning Inc.) containing test substances. After reaction at room temperature for 2 hours, biotinylated geldanamycin was added thereto at a concentration of 40 nM/well and further reacted for 1 hour. Detection mix (20 mM HEPES-KOH (pH 7.5), 0.5% BSA, 0.04 mg/mL Nickel Chelate Acceptor beads, 0.04 mg/mL Streptavidin-coated Donor beads) (#6760619C, PerkinElmer, Inc.) was added to each well in an amount equal to the amount of the reaction solution and reacted at room temperature for 1 hour in the dark. Then, fluorescence intensity was measured using Multilabel Plate Reader EnVision (PerkinElmer, Inc.). Background: Bead proximity is the source of the signal in Alpha formats.
Turning to `CCNc1cc(-c2nccc3c(-n4cnc(-c5cnn(C)c5)c4)cccc23)ccc1C(N)=O`, the IC50 stood at 190 nM. For `NC(=O)c1ccc(-c2nccc3c(-c4cncc(N)c4)cccc23)cc1NC1CCC(O)CC1` (stereo not drawn), the IC50 turned out to be 60 nM. Under `NCC(=O)OC1CCC(Nc2cc(-c3nccc4c(-c5cnc6ccccc6c5)cccc34)ccc2C(N)=O)CC1` (stereo not drawn) stands 450 nM. With `CC(C)Cn1cc(-c2cn(-c3cccc4c(-c5ccc(C(N)=O)c(NC6CCC(O)CC6)c5)nccc34)cn2)cn1` (stereo not drawn) the figure was 280 nM; with `Cn1cc(-c2cn(-c3cccc4c(-c5ccc(C(N)=O)c(NC6CCCCCC6)c5)nccc34)cn2)cn1`, 270 nM; with `Cn1cc(-c2cn(-c3cccc4c(-c5ccc(C(N)=O)c(NCC6CC6)c5)cc(C(F)(F)F)nc34)cn2)cn1`, 220 nM. Consider `CCNc1cc(-c2cc(C(F)(F)F)nc3c(-n4cnc(-c5cnn(C(F)F)c5)c4)cccc23)ccc1C(N)=O`, for which the IC50 stood at 230 nM. In the case of `CC(C)(C)Nc1cc(-c2cc(C(F)(F)F)nc3c(-n4cnc(-c5ccccc5)c4)cccc23)ccc1C(N)=O`, the IC50 was determined as 3390 nM.
